In ChEMBL document CHEMBL6083254, “Optimization of B-Ring-Functionalized Antimalarial Tambjamines and Prodiginines” (J Med Chem, 2024):
pIC50: −log10 of the molar value. Where “and” joins values, the source holds several entries; their conditions need not be identical. Equal values may be shown once. Calls of active or inactive are those of the source. The rule behind the calls is not given here.

Columns and labels:
[1] = test system: Plasmodium falciparum; assay: microbe, parasite or virus in culture; conditions: D6, 72 h
[2] = (§1) Cytotoxicity against human HepG2 cells assessed as cell viability incubated for 72 hrs by MTT assay; type: toxicity, cell-based; conditions: human, HepG2 cells
[3] = test system: Plasmodium falciparum; assay: microbe, parasite or virus in culture; conditions: Tm90-C2B, 72 h
[4] = test system: Plasmodium yoelii; assay: Antiplasmodial activity against asexual erythrocytic stage of Plasmodium yoelii infected in female CFI mouse model assessed as reduction in parasitemia at 25 mg/kg, po administered once daily for 4 days and measured on day 5 by Giemsa staining based microscopic analysis relative to control; type: functional; design: scale not given: the % may be the effect or the level left; conditions: time 5 day
[5] = in vitro; conditions: human
Description: Selectivity index, ratio of IC50 for cytotoxicity against human HepG2 cells assessed as cell viability to IC50 for antiplasmodial activity against asexual erythrocytic stage of Plasmodium falciparum D6 assessed as inhibition of parasitic growth incubated

[6] = test system: Plasmodium yoelii; assay: Antiplasmodial activity against asexual erythrocytic stage of Plasmodium yoelii infected in female CFI mouse model assessed as reduction in parasitemia at 3 mg/kg, po administered once daily for 4 days and measured on day 5 by Giemsa staining based microscopic analysis relative to control; type: functional
[7] = test system: Plasmodium falciparum; assay: microbe, parasite or virus in culture; conditions: Dd2, 72 h
[8] = test system: Plasmodium yoelii; assay: Antiplasmodial activity against asexual erythrocytic stage of Plasmodium yoelii infected in female CFI mouse model assessed as reduction in parasitemia at 10 mg/kg, po administered once daily for 4 days and measured on day 5 by Giemsa staining based microscopic analysis relative to control; type: functional
[9] = test system: Plasmodium yoelii; assay: Antiplasmodial activity against asexual erythrocytic stage of Plasmodium yoelii infected in female CFI mouse model at 25 mg/kg, po administered once daily for 4 days and measured on day 5 by Giemsa staining based microscopic analysis; type: functional, organism-based; conditions: time 5.0 day
[10] = test system: Plasmodium yoelii; assay: Antiplasmodial activity against asexual erythrocytic stage of Plasmodium yoelii infected in female CFI mouse model assessed as reduction in parasitemia at 1 mg/kg, po administered once daily for 4 days and measured on day 5 by Giemsa staining based microscopic analysis relative to control; type: functional
[11] = Metabolic stability in human liver microsomes assessed as intrinsic clearance measured upto 60 mins LC-MS analysis
[12] = Metabolic stability in human liver microsomes assessed as half life measured upto 60 mins LC-MS analysis
[13] = Metabolic stability in mouse liver microsomes assessed as intrinsic clearance measured upto 60 mins LC-MS analysis
[14] = Metabolic stability in mouse liver microsomes assessed as half life measured upto 60 mins LC-MS analysis
[15] = Aqueous solubility of compound in PBS buffer at pH 7.4 incubated for 90 mins by UV-vis spectroscopic analysis; conditions: pH 7.4, 1.5 h
[16] = test system: HepG2; assay: as §1; type: toxicity, cell-based; conditions: hepg2
[17] = test system: Plasmodium yoelii; assay: Antiplasmodial activity against asexual erythrocytic stage of Plasmodium yoelii infected in po dosed female CFI mouse model assessed as reduction in parasitemia administered once daily for 4 days and measured on day 5 by Giemsa staining based microscopic analysis; type: functional; conditions: time 5 day, 120 h
[18] = test system: Plasmodium yoelii; assay: Antiplasmodial activity against asexual erythrocytic stage of Plasmodium yoelii infected in female CFI mouse model at 10 mg/kg, po administered once daily for 4 days and measured on day 5 by Giemsa staining based microscopic analysis; type: functional, organism-based; conditions: time 5.0 day

Row | Compound | pIC50 [1] | IC50 at 72 h [2] | pIC50 [3] | Activity [4] | selectivity ratio [5] | Activity ([6]; time 5.0 day) | pIC50 [7] | Activity ([8]; time 5.0 day) | Activity [9] | Activity ([10]; time 5.0 day) | microsomal CLint at 1 h [11] | half-life at 1 h [12] | microsomal CLint at 1 h [13] | half-life at 1 h [14] | solubility [15] | other results
1 | CCCCCCCCCCCC1=N/C(=C\c2[nH]c(-c3ccc[nH]3)cc2OC)C=C1 [UNDECYLPRODIGININE] | 8.14 | 1710 nM | 8.09 | 100% | 237 | inactive | 8.12 | inactive | Active | inactive |  |  |  |  |  | 
2 | CCCCCC1=C/C(=C\c2[nH]c(-c3ccc[nH]3)cc2OC)N=C1C | 8.10 | 1070 nM | 8.06 |  |  |  | 8.14 |  |  |  | 13.1 µL/min/mg | > 60 min | 61.2 µL/min/mg | 23 min |  | 
3 | CCCCCCCCCCCc1ccc(/C=C2\N=C(c3ccc[nH]3)C=C2Oc2ccccc2)[nH]1.Cl |  | > 200000 nM | 7.19 | 100% | > 2440 | inactive | 7.09 | inactive | inactive | inactive | 23.4 µL/min/mg | 59.2 min | 85.7 µL/min/mg | 16.2 min | 8.19 µM | 
4 | CCCCCc1cc(/C=C2\N=C(c3ccc[nH]3)C=C2OCCC)[nH]c1C.Cl | 9.51 |  | 8.34 | 100% | 11600 |  | 9.30 |  |  |  | 31.8 µL/min/mg | 43.6 min | 40.8 µL/min/mg | 34 min | 18.5 µM | pIC50 [16]: 5.45; Activity ([6]; time 5 day): 89.9%; Activity ([8]; time 5 day): 100%; ED50 [17]: 1.46 mg/kg/day and 3 mg/kg/day; Activity [18]: inactive; Activity ([10]; time 5 day): 23.9%
